Key:
HIV-integrase = molecular target: T1, HIV-integrase (Human immunodeficiency virus type 1 group M subtype B, UniProt P12497); assay: HIV-Integrase Inhibition Activity (SPA strand transfer assay); type: biochemical; details: recombinant integrase, SPA beads, P33 labeled target DNA; read-out: Activity (IC50 class, HIV-integrase inhibition)
T1 construct: Recombinant integrase (0.26 ng) was incubated with the beads
In short: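 Biotinylated substrate DNA (5 pmol) on streptavidin SPA beads was preloaded with 0.26 ng recombinant integrase for 90 min at 37 °C, then washed. Inhibitors and 0.1 fmol 33P-labelled target DNA were added; EDTA (10 mM final) stopped the reaction. Strand-transfer integration was read as bead-associated CPM; IC50 values are grouped into activity bands.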

[1] = test system: recombinant NL-Rluc virus; assay: Inhibition of HIV replication (NL-Rluc virus, luciferase); type: cell-based; details: NL-Rluc pseudotype virus; serum condition of tabulated values not stated (10% FBS, 15 mg/ml HSA/10% FBS or 40% human serum/5% FBS); read-out: Activity (EC50 class, inhibition of HIV replication)

| Compound | IC50 (HIV-integrase) [nM] | EC50 [1] [nM] | melting point [°C] |
| --- | --- | --- | --- |
| Pyrimido[2,1-c][1,4]oxazine-2- carboxamide, 4,6,7,9-tetrahydro-3- hydroxy-9,9-dimethyl-N-[[5- methyl-2-(trifluoromethyl)-3- furanyl]methy]-4-oxo- [Example 42] | 2 to 100 | 100 to 1000 | – |
| Pyrimido[2,1-c][1,4]oxazine-2- carboxamide, N-(1,2-benzisoxazol- 3-ylmethyl)-4,6,7,9-tetrahydro-3- hydroxy-9,9-dimethyl-4-oxo- [Example 59] | 2 to 100 | 100 to 1000 | – |
| Pyrimido[2,1-c][1,4]oxazine-2- carboxamide, N-(benzo[b]thien-3- ylmethyl)-4,6,7,9-tetrahydro-3- hydroxy-9,9-dimethyl-4-oxo- [Example 40] | 2 to 100 | 100 to 1000 | – |
| Pyrimido[2,1-c][1,4]oxazine-2- carboxamide, 4,6,7,9-tetrahydro-3- hydroxy-9,9-dimethyl-N-[(1- methyl-1H-pyrazol-3-yl)methyl]-4- oxo- [Example 72] | 2 to 100 | 100 to 1000 | – |
| Cc1ncc(CNC(=O)c2nc3n(c(=O)c2O)CCOC3(C)C)s1 [Example 85, 3-Hydroxy-9,9-dimethyl-N-((2-methylthiazol-5-yl)methyl)-4-oxo-4,6,7,9-tetrahydropyrimido[2,1-c][1,4]oxazine-2-carboxamide] | 2 to 100 | – | 245 |

Source: patent US7893055B2, “HIV integrase inhibitors” (priority 2006, dated 2011)
